Legend:
Assay type in all cases: in vivo
[1] = system: ragweed (common ragweed, Ambrosia artemisiifolia); test: Test A preemergence soil spray, visual injury rating 0-100; details: 10 days
Outline: (§1)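 Directed preemergence spray onto seeded soil or postemergence spray onto 2-10 cm plants (loam plus sand); compound carried in surfactant-containing non-phytotoxic solvent. Injury rated by eye after 10 d greenhouse growth; 0 = no effect, 100 = complete control.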

[2] = system: green foxtail (Setaria viridis); test: as above; details: 10 days
Outline: as §1

[3] = system: wheat (Triticum aestivum); test: as above; details: 10 days
Outline: as §1

[4] = system: ryegrass, Italian (italian ryegrass, Lolium multiflorum); test: as above; details: 10 days
Outline: as §1

[5] = system: blackgrass (Alopecurus myosuroides); test: as above; details: 10 days
Outline: as §1

kochia (Bassia scoparia) [6] = test: as above; details: 10 days
Outline: as §1

[7] = system: oat, wild (wild oat, Avena fatua); test: as above; details: 10 days
Outline: as §1

[8] = system: palmer (palmer amaranth, palmer pigweed, Amaranthus palmeri); test: as above; details: 10 days
Outline: as §1

soybean (Glycine max) [9] = test: as above; details: 10 days
Outline: as §1

[10] = system: barnyardgrass (Echinochloa crus-galli); test: as above; details: 10 days
Outline: as §1

corn (Zea mays) [11] = test: as above; details: 10 days
Outline: as §1

[12] = system: sedge, umbrella (small-flower umbrella sedge, Cyperus difformis); test: Test B flooded paddy test, visual plant response rating 0-100; details: 250 g ai/ha, Flood, applied to paddy water, evaluated after 13 days
Outline: (§2)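 In this flooded assay, 2-leaf seedlings received compound through the water layer, kept at 3 cm over the soil. Plants were held 13 days in a greenhouse and then visually compared with control pots.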

rice (Oryza sativa) = test: as above; details: 250 g ai/ha, Flood, applied to paddy water, evaluated after 13 days
Outline: as §2

[13] = system: barnyardgrass (Echinochloa crusgalli); test: as above; details: 250 g ai/ha, Flood, applied to paddy water, evaluated after 13 days
Outline: as §2

[14] = system: ducksalad (Heteranthera limosa); test: as above; details: 250 g ai/ha, Flood, applied to paddy water, evaluated after 13 days
Outline: as §2

[15] = system: horseweed (Erigeron canadensis); test: Test A postemergence application, visual injury rating 0-100
Outline: as §1

[16] = system: ragweed (common ragweed, Ambrosia artemisiifolia); test: as above
Outline: as §1

[17] = system: green foxtail (Setaria viridis); test: as above
Outline: as §1

[18] = system: wheat (Triticum aestivum); test: as above
Outline: as §1

[19] = system: ryegrass, Italian (italian ryegrass, Lolium multiflorum); test: as above
Outline: as §1

[20] = system: blackgrass (Alopecurus myosuroides); test: as above
Outline: as §1

kochia (Bassia scoparia) [21] = test: as above
Outline: as §1

[22] = system: oat, wild (wild oat, Avena fatua); test: as above
Outline: as §1

[23] = system: palmer (palmer amaranth, palmer pigweed, Amaranthus palmeri); test: as above
Outline: as §1

soybean (Glycine max) [24] = test: as above
Outline: as §1

[25] = system: barnyardgrass (Echinochloa crus-galli); test: as above
Outline: as §1

corn (Zea mays) [26] = test: as above
Outline: as §1

[27] = 62 g ai/ha, 0 = no effect, 100 = complete control
[28] = 62 g ai/ha, postemergence, 10 days, 0 = no effect, 100 = complete control
[29] = Postemergence, 16 g ai/ha, greenhouse 10 days, 0 no effect, 100 complete control

COC(=O)COC(=O)C1=CCC(NC(=O)C2(C)CN(c3cc(F)cc(F)c3)C(=O)O2)C1 (centres unmarked) [Compound 108]
70: Ryegrass, Italian plant response rating ([4]; 16 g ai/ha, 0 to 100 scale) | Oat, Wild plant response rating (0-100) [7, 27] | Plant response rating, Sedge, Umbrella (0 to 100 scale, 0 is no effect and 100 is complete control) [12] | Plant response rating, Ducksalad (0 to 100 scale, 0 is no effect and 100 is complete control) [14] | Horseweed plant response rating (0-100) [15, 28] | Blackgrass plant response rating (0 to 100 scale) [20, 29] | Pigweed, Palmer plant response rating (0 to 100 scale) [23, 29] | Soybean plant response rating (0-100) (soybean (Glycine max) [24]; [28])
10: Soybean plant response rating (0-100) (soybean (Glycine max) [9]; [27])
100: Foxtail, Green plant response rating (0-100) [2, 27] | Barnyardgrass plant response rating (0-100) [10, 27] | Barnyardgrass plant response rating (0-100) [25, 28] | Corn plant response rating (0-100) (corn (Zea mays) [26]; [28]) | Corn plant response rating (0 to 100 scale) (corn (Zea mays) [26]; [29])
85: Plant response rating, Rice (0 to 100 scale, 0 is no effect and 100 is complete control) (rice (Oryza sativa))
0: Ragweed plant response rating ([1]; 16 g ai/ha, 0 to 100 scale) | Ragweed plant response rating (0-100) [1, 27] | Blackgrass plant response rating ([5]; 16 g ai/ha, 0 to 100 scale) | Kochia plant response rating (kochia (Bassia scoparia) [6]; 16 g ai/ha, 0 to 100 scale) | Oat, Wild plant response rating ([7]; 16 g ai/ha, 0 to 100 scale) | Soybean plant response rating (soybean (Glycine max) [9]; 16 g ai/ha, 0 to 100 scale)
20: Barnyardgrass plant response rating ([10]; 16 g ai/ha, 0 to 100 scale) | Ragweed plant response rating (0 to 100 scale) [16, 29]
50: Kochia plant response rating (0-100) (kochia (Bassia scoparia) [6]; [27]) | Plant response rating, Barnyardgrass (0 to 100 scale, 0 is no effect and 100 is complete control) [13] | Wheat plant response rating (0 to 100 scale) [18, 29]
40: Ragweed plant response rating (0-100) [16, 28]
60: Corn plant response rating (0-100) (corn (Zea mays) [11]; [27]) | Foxtail, Green plant response rating (0 to 100 scale) [17, 29] | Ryegrass, Italian plant response rating (0 to 100 scale) [19, 29] | Soybean plant response rating (0 to 100 scale) (soybean (Glycine max) [24]; [29])
30: Foxtail, Green plant response rating ([2]; 16 g ai/ha, 0 to 100 scale) | Blackgrass plant response rating (0-100) [5, 27] | Pigweed, Palmer plant response rating ([8]; 16 g ai/ha, 0 to 100 scale) | Corn plant response rating (corn (Zea mays) [11]; 16 g ai/ha, 0 to 100 scale) | Horseweed plant response rating (0 to 100 scale) [15, 29] | Oat, Wild plant response rating (0 to 100 scale) [22, 29]
90: Wheat plant response rating ([3]; 16 g ai/ha, 0 to 100 scale) | Wheat plant response rating (0-100) [3, 27] | Ryegrass, Italian plant response rating (0-100) [4, 27] | Pigweed, Palmer plant response rating (0-100) [8, 27] | Foxtail, Green plant response rating (0-100) [17, 28] | Wheat plant response rating (0-100) [18, 28] | Blackgrass plant response rating (0-100) [20, 28] | Kochia plant response rating (0-100) (kochia (Bassia scoparia) [21]; [28]) | Pigweed, Palmer plant response rating (0-100) [23, 28] | Barnyardgrass plant response rating (0 to 100 scale) [25, 29]
80: Ryegrass, Italian plant response rating (0-100) [19, 28] | Kochia plant response rating (0 to 100 scale) (kochia (Bassia scoparia) [21]; [29]) | Oat, Wild plant response rating (0-100) [22, 28]
